Drawing on ChEMBL document CHEMBL1201862, “PubChem BioAssay data set” (2004), this text covers AC50, CC50 and IC50 for ten molecules.

The structures appear in SMILES notation. Calls of active or inactive are those of the source.

The test system of one assay is HeLa. The experiment in a line: HeLa cell cytotoxicity, dose response, cytotoxicity control for MITF activator project, CellTiter-Glo luminescence, cherry-pick samples (AID 540259). The assay is classed as functional, cell-based. As to conditions: Homo sapiens. Background: In ATP-based viability assays light output follows the ATP content of the culture.
In a further assay the test system is Vero. The experiment in a line: cells. The class given is functional. The conditions noted are these: Chlorocebus sabaeus.
Assay [1] concerns the target T1, Mannose-6-phosphate isomerase (Homo sapiens, UniProt P34949).
T1 sequence (P34949 whole entry): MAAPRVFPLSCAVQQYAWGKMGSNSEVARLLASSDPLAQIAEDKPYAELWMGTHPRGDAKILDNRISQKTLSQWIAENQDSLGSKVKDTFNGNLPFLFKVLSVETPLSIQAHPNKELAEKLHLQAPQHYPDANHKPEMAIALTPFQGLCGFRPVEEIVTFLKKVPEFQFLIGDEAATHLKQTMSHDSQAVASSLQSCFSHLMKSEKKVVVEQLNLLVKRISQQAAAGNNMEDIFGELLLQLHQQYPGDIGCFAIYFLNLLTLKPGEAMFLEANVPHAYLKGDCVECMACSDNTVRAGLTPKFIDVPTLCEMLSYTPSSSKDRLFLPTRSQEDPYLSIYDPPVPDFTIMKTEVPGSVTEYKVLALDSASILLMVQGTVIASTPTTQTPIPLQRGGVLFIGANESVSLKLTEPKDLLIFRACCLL
In words: PMI enzyme inhibitors, confirmation, biochemical, fluorescence intensity (AID 1535).

A short description of assay [2]: Vero E6 cell cytotoxicity, dose response, cytotoxicity control for non-replicating M. tuberculosis project, secondary assay (AID 492998). The class given is functional, VeroE6. The conditions noted are these: Vero C1008.
A short description of assay [3]: THP-1 cell cytotoxicity, dose response, cytotoxicity control for non-replicating M. tuberculosis project (AID 489025). The assay is classed as functional.
The nature of a further assay: cells. The assay is classed as functional.
For a further assay, the system named is H9c2. In words: cells. The class given is functional, cell-based. As to conditions: Rattus norvegicus, H9c2, Myocardium.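 Further: confirmatory concentration-response retest of ultra-high-throughput screening hits for modulation of myocardial damage; cell death induced by hydrogen peroxide oxidative stress; compound pretreatment for 60 min then peroxide exposure for 2 h; potency is for protecting the cells against peroxide damage rather than for killing them.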
Assay [4] is described as follows: microbe, parasite or virus in culture. The assay is classed as functional. The conditions noted are these: Mycobacterium tuberculosis.
The target in assay [5] is Heat shock protein HSP 90-alpha (Homo sapiens, UniProt P07900). The assay is classed as functional, organism-based.
The nature of assay [6]: Luminescence Cell-Based Dose Retest to Confirm Inhibitors of Cancer Stem Cells. [Related pubchem assays (depositor defined):AID2717, AID2721]. The assay is classed as functional. The conditions noted are these: Homo sapiens.
Assay [7] concerns the target T2, Ubiquitin-conjugating enzyme E2 N (Homo sapiens, UniProt P61088).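 Further: Dose-response confirmation in a TR-FRET assay detecting UBC13-driven polyubiquitin chain formation, inhibition measured.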
T2 sequence (P61088 whole entry): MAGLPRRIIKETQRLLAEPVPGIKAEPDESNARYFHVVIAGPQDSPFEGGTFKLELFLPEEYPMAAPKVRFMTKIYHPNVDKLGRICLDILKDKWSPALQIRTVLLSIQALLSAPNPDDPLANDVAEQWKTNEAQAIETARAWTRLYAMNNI
The class given is functional.

For `COc1cc(CNCc2ccccn2)ccc1OCc1ccc(Cl)c(Cl)c1`, the AC50 in the assay with HeLa was 45.5 µM (active). For the same molecule, in the assay with Vero, the CC50 was > 25 µM (active).

As for `COc1ccc(/N=c2\ssnc2Cl)cn1`, the IC50 in assay [1] was 29.8 µM (active).

As for `O=C(N/N=C/c1cccc2cccnc12)[C@H]1C[C@@H]1c1ccccc1`, the results for the CC50 in assay [2], in [3] and in assay [4] were > 20 µM (active), 32.9 µM (active) and > 40 µM (active), respectively. Further, the IC50 was 33.1 µM (active) in “cells” and 11.2 µM (active) in the assay with H9c2.

Consider `CC(C)(C)c1ccc(-c2cc(C(=O)NNC(=O)Nc3ccccc3)c3ccccc3n2)cc1`, for which the AC50 in the assay on HeLa is 69.9 µM (active).

Turning to `Cc1cc(/N=c2\ssnc2Cl)n[nH]1`, the IC50 in assay [1] was 5.94 µM (active).

Consider `COc1ccccc1OCc1cc(C(=O)N2CCN(C)C(c3ccccc3)C2)no1` (stereo not drawn), for which the AC50 in assay [5] is 4.78 µM (active).

In the case of `COC(=O)c1ccc2[nH]c(C3(O)CCCCC3)c(C)c2c1`, the AC50 with HeLa is 44.3 µM (active).

For `COc1ccc(N(C(=O)c2ccncc2)S(=O)(=O)c2ccccc2)cc1`, the AC50 in assay [5] is 1.77 µM (active).

As for `Cc1[nH]c2ccc(C(=O)N3CCN(c4cccc(Cl)c4)CC3)cc2c1C`, the AC50 in assay [5] was 7.72 µM (active).

With `CC(C)(C)c1cc(-c2nc(N)nc(N)n2)c(O)c(C(C)(C)C)c1`, the AC50 was 28.9 µM (active) in [5] and 3.65 µM (active) in assay [6]. Besides, the IC50 in assay [7] was > 20 µM (inactive). For the same molecule, the CC50 in assay [4] was 38.3 µM (active).

As usually defined, the AC50 is the concentration at which the activity in the assay is half-maximal. For orientation: IC50 means the concentration that gives 50% inhibition.
